Laboratory results reported in patent US20230257715A1, “COMPOSITIONS AND METHODS FOR REGULATING ENTEROENDOCRINE CELL DIFFERENTIATION AND USES THEREOF” (The Children's Medical Center Corporation, priority 2020, published 2023).
“And” between values parts separate entries of the source, which are not always exact repeats. Equal values may be shown once.

Legend:
[1] = system: human duodenal enteroids; assay: Immunofluorescence staining of hormones (SST, 5HT, GIP, CCK) in enteroids; assay type: cell-based; settings: 14-day protocol
Description: Immunofluorescence staining was performed as previously described with minor modifications (Dekkers J F, Alieva M, Wellens L M, et al. Nat Protoc 2019; 14:1l756-1771)^32. Organoids were grown in and isolated from Matrigel® as noted above. 1-3 wells from a 24-well plate were washed in 200 μL of 1× phosphate-buffered saline (PBS) and moved in suspension to a 1.5 mL microcentrifuge tube. Each tube was centrifuged at 800×g for 5 minutes at 4° C. to pellet organoids. PBS was aspirated, and organoids were fixed in 200 μL of 4% paraformaldehyde (PFA) for 20 minutes on ice, shaking. Each tube was centrifuged again as above, and PFA was aspirated. The organoids were then resuspended in 500 μL of 0.3% Triton-X in PBS and moved to a 48-well plate for the remaining steps. The organoids were permeabilized for 30 minutes at room temperature, shaking. Between each step, organoids were allowed to settle to the bottom of each well, the plate was angled, and the solution aspirated by careful pipetting. Organoids were then blocked with 5% bovine serum albumin in PBS for 1.5 hours at room temperature, shaking. This was followed by three five-minute washes in 500 μL of PBS at room temperature, shaking.
Each well was then incubated in 200 μL of primary antibodies diluted in 5% BSA/0.1% Trition-X in PBS at 4° C. overnight. This was followed by five washes in 500 μL of 0.1% Triton-X in PBS for 15 minutes each at room temperature, shaking. 200 μL of secondary antibodies, including Alexa Fluor 488- or 647-conjugated anti-mouse (Invitrogen, A-21202, or A-31571, 1:400), Alexa Fluor 488-conjugated anti-rat (Invitrogen, A-21208, 1:400), Alexa Fluor 488-conjugated anti-goat (Invitrogen, A-11055, 1:400) or Alexa Fluor 647-conjugated anti-rabbit (Invitrogen, A-31573, 1:400), diluted in 0.1% Triton-X in PBS, which were then added to each well and incubated for two hours at room temperature, shaking. Organoids were then washed as above, then moved to new 1.5 mL centrifuge tubes. During the last wash, 4′,6-diamidino-2-phenylindole (DAPI, Life Technologies, D1306) was added at a concentration of 1:1000 for nuclear staining. Organoids were then centrifuged at 1000×g for 5 minutes at 4° C. to assist in removal of as much PBS as possible. Slides were prepared by drawing three circles with a hydrophobic pen (Vector Laboratories, H-4000). Enteroids were then resuspended in 20 μL of Prolong Gold Antifade mountant (Life Technologies, P36930), and droplets placed within hydrophobic circles. […]
(§1) This technique was adapted from a previously described method (Borten M A, Bajikar S S, Sasaki N, et al. Sci Rep 2018; 8:5319)^69. […] Any remaining clumped enteroids were manually separated prior to quantification. […]

[2] = system: human duodenal enteroids; assay: Immunofluorescence staining of CHGA, percentage of CHGA-positive enteroids; assay type: cell-based
Description: Immunofluorescence staining was performed as previously described with minor modifications (Dekkers J F, Alieva M, Wellens L M, et al. Nat Protoc 2019; 14:1l756-1771)^32. Organoids were grown in and isolated from Matrigel® as noted above. 1-3 wells from a 24-well plate were washed in 200 μL of 1× phosphate-buffered saline (PBS) and moved in suspension to a 1.5 mL microcentrifuge tube. Each tube was centrifuged at 800×g for 5 minutes at 4° C. to pellet organoids. PBS was aspirated, and organoids were fixed in 200 μL of 4% paraformaldehyde (PFA) for 20 minutes on ice, shaking. Each tube was centrifuged again as above, and PFA was aspirated. The organoids were then resuspended in 500 μL of 0.3% Triton-X in PBS and moved to a 48-well plate for the remaining steps. The organoids were permeabilized for 30 minutes at room temperature, shaking. Between each step, organoids were allowed to settle to the bottom of each well, the plate was angled, and the solution aspirated by careful pipetting. Organoids were then blocked with 5% bovine serum albumin in PBS for 1.5 hours at room temperature, shaking. This was followed by three five-minute washes in 500 μL of PBS at room temperature, shaking. […]
as §1

CCn1cc(C(=O)O)c(=O)c2c(N)c(F)c(NC3CCCCC3)cc21 [AS, AS1842856]
percentage of CCK-positive enteroids [1]: 4.5% | percentage of GIP-positive enteroids [1]: 53% | percentage of enteroids containing SST-positive cells [1]: 42% | percentage of enteroids with positive 5HT staining [1]: 75% | CHGA expression by immunofluorescence staining (whole well, qualitative) ([2]; FIG. 5B legend): more | percentage of enteroids containing CHGA+ cells (immunofluorescence) ([2]; enteroids, 14-day protocol): 85% and 82%
